According to BindingDB's records for doi:10.7270/Q2TQ5ZZB (Burnham Center For Chemical Genomics, 2010):
Counter-ions that a name gives are not always drawn.

Target: G-protein coupled receptor 35 (Homo sapiens, UniProt Q9HC97)
Experiment: GPR35 antagonists blocking zaprinast-driven arrestin recruitment, primary screen, imaging, U2OS, beta-arrestin-GFP, zaprinast agonist (AID 2058)

Chain of G-protein coupled receptor 35 (Q9HC97 whole entry): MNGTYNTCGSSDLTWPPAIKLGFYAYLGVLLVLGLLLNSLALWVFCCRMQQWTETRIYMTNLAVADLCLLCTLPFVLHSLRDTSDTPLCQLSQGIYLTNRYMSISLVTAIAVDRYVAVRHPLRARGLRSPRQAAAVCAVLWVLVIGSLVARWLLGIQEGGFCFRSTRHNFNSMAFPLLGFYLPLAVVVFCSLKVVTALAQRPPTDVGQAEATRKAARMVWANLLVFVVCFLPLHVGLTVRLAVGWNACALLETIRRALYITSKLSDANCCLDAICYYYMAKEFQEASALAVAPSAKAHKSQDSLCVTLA

IC50	SMILES
2.74 µM	COc1cccc(C2C3CN(C)CCC3=C(C#N)C(=N)C2(C#N)C#N)c1OC (stereo not given) [6-Amino-8-(2,3-dimethoxy-phenyl)-2-methyl-2,3,8,8a-tetrahydro-1H-isoquinoline-5,7,7-tricarbonitrile]
0.991 µM	CN1CCC2=C(C#N)C(=N)C(C#N)(C#N)C(c3ccsc3)C2C1 (stereo not given) [6-azanyl-2-methyl-8-thiophen-3-yl-1,3,8,8a-tetrahydroisoquinoline-5,7,7-tricarbonitrile]
12 µM	CN1CCC2=C(C#N)C(=N)C(C#N)(C#N)C(c3cccc(Cl)c3Cl)C2C1 (stereo not given) [6-azanyl-8-[2,3-bis(chloranyl)phenyl]-2-methyl-1,3,8,8a-tetrahydroisoquinoline-5,7,7-tricarbonitrile]
11 µM	CC1(C)Cc2c(ccc3ccccc23)C(CC(=O)N2CCCCC2)=N1 [(2Z)-2-(2,2-dimethyl-1,3-dihydrobenzo[f]isoquinolin-4-ylidene)-1-(1-piperidinyl)ethanone;hydrochloride]
3.08 µM	Oc1ccc(CN=Nc2nc(-c3ccccc3F)nc3ccccc23)c(O)c1 [MLS000778210]
